Experimental data published in article PMC12320831, “Synthesis and Biological Evaluation of New Chalcogen Semicarbazone (S, Se) and Their Azole Derivatives against Chagas Disease” (Journal of Medicinal Chemistry, 2024).
Where a name gives a salt, the structure may show the parent alone. Read-outs that look alike come from different tables or passages of the source.

Key:
[1] = Host cell cytotoxicity (C2C12 viability); assay type: cell-based, Mouse; settings: mouse; for viability at 48 h, 10 µM: < 50% viability considered cytotoxic; for CC50 at 48 h: viability calculated at 10 μM
Procedure: Antiparasitic activity and cytotoxicity of compounds were determined as described before (da Silva et al., Boudreau et al.). Mouse myoblasts cell line C2C12 (ATCCCRL-1772), were maintained in high glucose (4.5 g/L glucose) Dulbecco’s modified Eagle’s medium (DMEM Gibco), supplemented with 1% penicillin–streptomycin 10,000 U/mL (Gibco) and 5% fetal bovine serum (FBS, Sigma-Aldrich) at 37 °C with 5% CO2. parasites (CAI/72 strain, DTU TcI) were maintained by weekly coinfection with C2C12 cells. For all activity assays, C2C12 cells were infected at a 10:1 parasite-to-cell ratio with culture-derived trypomastigotes, which were harvested from the supernatant of infected C2C12 cells. After adding compounds to 384-well black clear-bottom plates (Greiner cat. no. 781091), trypomastigotes (7000 parasites/well) and C2C12 cells (700 cells/well) were seeded in a total volume of 50 μL of DMEM per well in the 384-well plates. Compounds were first tested at 10 μM. […] After 48 h at 37 °C and 5% CO2, plates were fixed with 4% formaldehyde solution for at least 1 h, washed with 1× PBS, and stained with 5 μg/mL of 4′,6-diamidino-2-phenylindole (DAPI) for at least 1 h prior to reading. Plates were imaged with the automated ImageXpress MicroXL microscope (Molecular Devices) and analyzed by MetaXpress software (Molecular Devices) using a custom module optimized for this assay. Infection levels (parasites per host cell) were normalized to the positive control (40 μM BNZ) and negative control (DMSO). Antiparasitic activity (EC50) ± standard deviation (SD) and host cell cytotoxicity (C2C12 viability) values were determined from the DRC using Prism software (GraphPad Software, La Jolla, CA). Every assay has three biological replicates, each in triplicates (n = 9 data points).

recombinant Cz (cruzain) = target: T1, recombinant Cz (cruzain) (Trypanosoma cruzi, UniProt P25779); experiment: biochemical; settings: read-out: Cz inhibition (%), 10 µM
T1 construct: Cz was expressed and purified as described in da Silva et al; made in house
Procedure: The screening assay was performed using 1 nM of Cz diluted in 0.1 M sodium acetate pH 5.5, 1 mM dithiothreitol (DTT), and 0.01% Triton X-100. Cz was expressed and purified as described in da Silva et al. The reaction starts after 10 min incubating the enzyme with the compounds (10 μM), when adding 2.5 μM of the substrate Z-FR-AMC final concentration (Z-Phe-Arg-amidomethylcoumarin, Sigma-Aldrich, C9521) diluted in the same assay buffer (final volume of 30 μL). The experiment was performed for 10 min. […] The DRC was performed with at least nine different concentrations of the inhibitors, diluted by 2-fold serial dilution, ranging from […] to 10 μM.
All experiments were accomplished in a 384-well black microplate, using a Synergy HTX (Biotek) plate reader at 25 °C with absorption/emission wavelengths of 360/460 nm. All assays were performed in triplicate wells and DMSO was used as a vehicle control. Enzymatic activity was measured and normalized to DMSO controls, and the inhibitor E-64 (10 μM) was used as a positive control for all assays. All experiments were performed in triplicates, with at least two independent assays (n = 6 data points). IC50 values were determined through nonlinear regression. Obtained data were treated and analyzed using GraphPad Prism 9.0 (GraphPad Software, La Jolla, California).

T. cruzi CAI/72 strain = experiment: Antiparasitic activity in C2C12 cells infected with T. cruzi CAI/72 (image-based assay); assay type: cell-based; settings: Trypanosoma cruzi; for EC50: mean of three experiments in triplicate (n = 9) ± SD
Procedure: Antiparasitic activity and cytotoxicity of compounds were determined as described before (da Silva et al., Boudreau et al.). Mouse myoblasts cell line C2C12 (ATCCCRL-1772), were maintained in high glucose (4.5 g/L glucose) Dulbecco’s modified Eagle’s medium (DMEM Gibco), supplemented with 1% penicillin–streptomycin 10,000 U/mL (Gibco) and 5% fetal bovine serum (FBS, Sigma-Aldrich) at 37 °C with 5% CO2. parasites (CAI/72 strain, DTU TcI) were maintained by weekly coinfection with C2C12 cells. For all activity assays, C2C12 cells were infected at a 10:1 parasite-to-cell ratio with culture-derived trypomastigotes, which were harvested from the supernatant of infected C2C12 cells. After adding compounds to 384-well black clear-bottom plates (Greiner cat. no. 781091), trypomastigotes (7000 parasites/well) and C2C12 cells (700 cells/well) were seeded in a total volume of 50 μL of DMEM per well in the 384-well plates. Compounds were first tested at 10 μM. […] Plates were imaged with the automated ImageXpress MicroXL microscope (Molecular Devices) and analyzed by MetaXpress software (Molecular Devices) using a custom module optimized for this assay. Infection levels (parasites per host cell) were normalized to the positive control (40 μM BNZ) and negative control (DMSO). Antiparasitic activity (EC50) ± standard deviation (SD) and host cell cytotoxicity (C2C12 viability) values were determined from the DRC using Prism software (GraphPad Software, La Jolla, CA). Every assay has three biological replicates, each in triplicates (n = 9 data points).

[2] = C2C12, read-out: Anti-Tc CAI/72 activity (%)
[3] = C2C12 myoblast cells infected with trypomastigotes
[4] = 10 µM, C2C12 infected cells, read-out: Anti-Tc CAI/72 activity (%)

T1 sequence (P25779 123-337 limits assumed): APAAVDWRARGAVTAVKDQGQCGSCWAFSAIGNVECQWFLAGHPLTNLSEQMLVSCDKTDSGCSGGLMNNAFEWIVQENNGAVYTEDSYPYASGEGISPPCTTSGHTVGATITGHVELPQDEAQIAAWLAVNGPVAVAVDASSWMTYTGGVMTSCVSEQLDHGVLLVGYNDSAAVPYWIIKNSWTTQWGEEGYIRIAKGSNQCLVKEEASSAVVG

| Compound | viability at 48 h, 10 µM [1] [%] | inhibition at 10 µM (recombinant Cz (cruzain)) [%] | inhibition at 10 µM (T. cruzi CAI/72 strain; [2]) [%] | viability at 48 h, 10 µM [1, 3] [%] | inhibition at 10 µM (T. cruzi CAI/72 strain; [4]) [%] | other results |
| --- | --- | --- | --- | --- | --- | --- |
| C/C(=N\Nc1nc(C)c[se]1)c1ccc(C)cc1 [Se2a, (E)-4-Methyl-2-(2-(1-(4-tolyl)ethylidene)hydrazineyl)-1,3-selenazole Hydrochloride] | 91.9 | 28.6 | 11.1 |  |  |  |
| COc1ccc(/C(C)=N/NC(N)=S)cc1 [Compound S1b, (E)-2-(1-(4-Methoxyphenyl)ethylidene)hydrazine-1-carbothioamide] |  | 87.1 |  | > 100 | 23.2 |  |
| COc1cccc(/C(C)=N/NC(N)=[Se])c1 [Se1g, (E)-2-(1-(3-Methoxyphenyl)ethylidene)hydrazine-1-carboselenoamide] | 31.1 | 101 | 7.03 |  |  |  |
| C/C(=N\NC(N)=S)c1ccc(C)cc1 [Compound S1a, (E)-2-(1-(4-Tolyl)ethylidene)hydrazine-1-carbothioamide] | > 100 | 74.8 |  |  | 42.3 |  |
| COc1ccc(C/C(C)=N/NC(N)=S)cc1 [Compound S1n, (E)-2-(1-(4-Methoxyphenyl)propan-2-ylidene)hydrazine-1-carbothioamide] |  | 56.2 |  | > 100 | 34.5 |  |
| C/C(=N\Nc1nc(C)cs1)c1ccc(Br)cc1 [Compound S2f, (E)-2-(2-(1-(4-Bromophenyl)ethylidene)hydrazineyl)-4-methylthiazole hydrochloride] |  | 53 |  | > 100 | 1.1 |  |
| C/C(=N\Nc1nc(C)cs1)c1ccc(C#N)cc1 [Compound S2e, (E)-4-(1-(2-(4-Methylthiazol-2-yl)hydrazineylidene)ethyl)benzonitrile Hydrochloride] |  | 89.8 |  | > 100 | 22.4 |  |
| C/C(=N\Nc1nc(C)cs1)C12CC3CC(CC(C3)C1)C2 [Compound S2q, 2-(2-((E)-1-((3s)-Adamantan-1-yl)ethylidene)hydrazineyl)-4-methylthiazole Hydrochloride] |  | 30.5 |  | > 100 | 40.5 |  |
| C/C(=N\NC(N)=[Se])C12CC3CC(CC(C3)C1)C2 [Se1q, (E)-2-(1-((3r,5r,7r)-Adamantan-1-yl)ethylidene)hydrazine-1-carboselenoamide] | 78.6 | 83.8 | 16.2 |  |  |  |
| C/C(=N\Nc1nc(C)c[se]1)c1ccsc1 [Se2l, (E)-4-Methyl-2-(2-(1-(thiophen-3-yl)ethylidene)hydrazineyl)-1,3-selenazole Hydrochloride] | > 100 |  | 50.4 |  |  | CC50 at 48 h [1]: > 10 µM; EC50 (T. cruzi CAI/72 strain; C2C12, 48 h, read-out: EC50 Tc CAI/72, intracellular amastigotes in C2C12 cells, 48 h): 3.73 µM |
| C/C(=N\NC(N)=S)c1ccc(F)c(F)c1 [Compound S1j, (E)-2-(1-(3,4-Difluorophenyl)ethylidene)hydrazine-1-carbothioamide] |  | 99.8 |  | > 100 | 49.9 |  |
| COc1ccc(/C(C)=N/Nc2nc(C)c[se]2)cc1 [Se2b, (E)-2-(2-(1-(4-Methoxyphenyl)ethylidene)hydrazineyl)-4-methyl-1,3-selenazole Hydrochloride] | 94 | 21.6 | 12.1 |  |  |  |
| C/C(=N\Nc1nc(C)c[se]1)C12CC3CC(CC(C3)C1)C2 [Se2q, 2-(2-((E)-1-((3s)-Adamantan-1-yl)ethylidene)hydrazineyl)-4-methyl-1,3-selenazole] | > 100 |  | 40.6 |  |  |  |
| C/C(=N\Nc1nc(C)cs1)c1csc2ccccc12 [Compound S2o, (E)-2-(2-(1-(Benzo[b]thiophen-3-yl)ethylidene)hydrazineyl)-4-methylthiazole Hydrochloride] |  | 27.9 |  | > 100 | 45.7 |  |
| C/C(=N\Nc1nc(C)c[se]1)c1cc2ccccc2o1 [Se2p, (E)-2-(2-(1-(Benzofuran-2-yl)ethylidene)hydrazineyl)-4-methyl-1,3-selenazole Hydrochloride] | > 100 | 98.5 | 26.6 |  |  |  |
| C/C(=N\NC(N)=[Se])c1ccsc1 [Se1l, (E)-2-(1-(Thiophen-3-yl)ethylidene)hydrazine-1-carboselenoamide] | 38.1 | 90.1 | 30.5 |  |  |  |
| C/C(=N\NC(N)=S)c1ccc(Br)cc1 [Compound S1f, (E)-2-(1-(4-Bromophenyl)ethylidene)hydrazine-1-carbothioamide] |  | 97.1 |  | > 100 | 45.4 |  |
| COc1ccc(/C(C)=N/NC(N)=[Se])c(OC)c1 [Se1k, (E,Z)-2-(1-(2,4-Dimethoxyphenyl)ethylidene)hydrazine-1-carboselenoamide] | 43.7 | 92.5 |  |  |  |  |
| C/C(=N\NC(N)=[Se])c1ccc(F)c(F)c1 [Se1j, (E)-2-(1-(3,4-Difluorophenyl)ethylidene)hydrazine-1-carboselenoamide] | 27.7 | 102 |  |  |  |  |
| C/C(=N\Nc1nc(C)cs1)c1ccc([N+](=O)[O-])cc1 [Compound S2c, (E)-4-Methyl-2-(2-(1-(4-nitrophenyl)ethylidene)hydrazineyl)thiazole Hydrochloride] |  | 96.7 |  | 99.2 |  |  |
| C/C(=N\Nc1nc(C)cs1)c1ccc(C(F)(F)F)cc1 [Compound S2d, (E)-4-Methyl-2-(2-(1-(4-(trifluoromethyl)phenyl)ethylidene)hydrazineyl)thiazole Hydrochloride] |  | 41.6 |  | > 100 |  |  |
| COc1ccc(/C(C)=N/Nc2nc(C)c[se]2)c(OC)c1 [Se2k, (E,Z)-2-(2-(1-(2,4-Dimethoxyphenyl)ethylidene)hydrazineyl)-4-methyl-1,3-selenazole Hydrochloride] | > 100 |  | 38.1 |  |  |  |
| O=C(Cn1ccnc1[N+](=O)[O-])NCc1ccccc1 [BZ, Benznidazole, reference compound] |  |  |  | > 100 |  | CC50 at 48 h [1, 3]: > 10 µM; inhibition at 40 µM (T. cruzi CAI/72 strain; 40 µM (BZ), C2C12 infected cells, read-out: Anti-Tc CAI/72 activity (%)): 81.7%; EC50 (T. cruzi CAI/72 strain; intracellular amastigotes in C2C12 cells, 48 h, read-out: EC50 Tc CAI/72): 5.79 ± 1.2 µM |
